≈ marks a conversion by molar mass, not a printed value. Where two headings read alike, the source gives them in different places.
Tests used:
Escherichia coli K-12 = assay: In vitro antibacterial activity, MIC by serial dilution; format: cell-based
Description: (§1) The minimum inhibitory concentration (MIC) was determined by the well
(§2) known serial dilution method.
(§3) Experimental conditions:?
(§4) Medium: nutrient broth, pH 7.0 (5 ml/tube)
(§5) Inoculum: 1 drop of 1 : 10^5 dilution of an overnight broth culture
(§6) Incubation temperature and time: 37°C for 48 hours

[1] = system: Pseudomonas aeruginosa Tsuchijima; assay: as above; format: cell-based; settings: nutrient broth pH 7.0, 37°C, 48 hours
Description: as §1, §2, §3, §4, §5, §6

[2] = system: Staphylococcus aureus Terajima; assay: as above; format: cell-based; settings: nutrient broth pH 7.0, 37°C, 48 hours
Description: as §1, §2, §3, §4, §5, §6

[3] = system: Salmonella typhimurium S-9; assay: In vivo efficacy against systemic infection with Salmonella typhimurium in mice; set-up: species or system mice (ddY-S); settings: for ED50: Salmonella enterica, TYPHIMURIUM, 336 h, twice a day for 4 days, 14 days observation; for number of the survived/the total number: 14 days
Description: (§7) In the Tables II to IV, the ED50 and ID50 values were calculated in accordance with the Behrens-Kaerber method [Arch. Exp. Path. Pharm., 162, 480 (1931)]. The compound numbers are those described in the Examples and compounds PA and AT-616 are as follows:
The numerical figures in the table show the number of the survived/the
(§8) total number. 0/8 means that all of 8 mice died. 8/8 means that all 8 mic
Experimental conditions.
Organism: Salmonella typhimurium S-9
(§9) Mice: male mice (ddY-S) weighing 20 g approximately
Infection: Intraperitoneal infection with 50 to 100 LD50 of a
bacterial suspension in nutrient broth (about 10^5 cells/mouse)
Medication: twice a day for 4 days from the day of infection.
Drug: an alkaline solution for parenteral administration and suspension i
0.2% CMC for oral administration
i.e.: intraperitoneal administration
p.o.: oral administration

[4] = system: Pseudomonas aeruginosa No. 12; assay: In vivo efficacy against systemic infection with Pseudomonas aeruginosa in mice; set-up: species or system mice (ddY-S); settings: for ED50: twice, about 5 minutes and 6 hours after infection
Description: as §7, §8, §9

[5] = system: Mycobacterium tuberculosis H37 Rv; assay: Antituberculous activity in vitro, MIC by serial dilution; format: cell-based; settings: H37RV, 504 h, Kirchner medium with 0.2% bovine albumin, pH 7.0, 37°C, 3 weeks
Description: (§10) The minimum inhibitory concentration (MIC:μg/ml) was determined by the
(§11) well known serial dilution method.
as §3
(§12) Medium: Kirchner medium containing 0.2% bovine albumin, pH 7.0 (3 ml/tube
(§13) Inoculum: 1 drop of 1:10^2 dilution of a culture in Modified Kirchner
(§14) medium for 2 weeks (OD=0.3) per tube
(§15) Incubation temp. and time: 37°C for 3 weeks

[6] = system: Mycobacterium tuberculosis Kurono; assay: as above; format: cell-based; settings: 504 h, Kirchner medium with 0.2% bovine albumin, pH 7.0, 37°C, 3 weeks
Description: as §10, §11, §3, §12, §13, §14, §15

[7] = K12, Escherichia coli K-12, nutrient broth pH 7.0, 37°C, 48 hours, read-out: MIC
[8] = NO.12, 168 h, ip, 100 mg/kg, 7 days, read-out: number of the survival/the total number (converted)
[9] = NO.12, 168 h, po, 7 days, read-out: number of the survival/the total number (converted)
[10] = Escherichia coli, K12, 48 h, pH 7
[11] = NO.12, 168 h, ip, 50 mg/kg, 7 days, read-out: number of the survival/the total number (converted)
[12] = NO.12, 168 h, ip, 7 days, read-out: number of the survival/the total number (converted)

Compound	MIC (Escherichia coli K-12; [7]) [µg/mL]	MIC [1] [µg/mL]	MIC [2] [µg/mL]	ED50 ([3]; po) [mg/kg]	number of the survived/the total number ([3]; po, 25 mg/kg)	number of the survived/the total number ([3]; po, 50 mg/kg)	ED50 ([4]; NO.12, 168 h, ip, 7 days) [mg/kg]	responders at 200 mg/kg [4, 9] [%]	ED50 ([4]; NO.12, 168 h, po, 7 days) [mg/kg]	ED50 ([3]; ip) [mg/kg]	other results
C=Cn1cc(C(=O)O)c(=O)c2cnc(N3CCNCC3)nc21.Cl [Compound 54, 5,8-Dihydro-2-(1-piperazinyl)-8-vinyl-5-oxopyrido[2,3-d] pyrimidine-6-carboxylic acid hydrochloride]	3	3	> 100	17.7	6/8	8/8	–	–	–	–	number of the survived/the total number ([3]; po, 12.5 mg/kg): 2/8
CCn1cc(C(=O)O)c(=O)c2cnc(N3CCC(O)C3)nc21 (stereo not drawn) [Compound AT-616, reference compound]	1 (≈ 3.29 µM)	100 (≈ 329 µM)	30 (≈ 98.6 µM)	–	–	–	> 100	12.5	> 200	–	responders at 100 mg/kg [4, 8]: 37.5%
CCCn1cc(C(=O)O)c(=O)c2cnc(N3CCNCC3)nc21 [Compound 2, 5,8-Dihydro-2-(1-piperazinyl)-8-n-propyl-5-oxopyrido[2,3-d]pyrimidine-6-carboxylic acid]	–	30 (≈ 94.5 µM)	100 (≈ 315 µM)	–	–	–	35.4	62.5	< 200	–	MIC (Escherichia coli K-12; [10]): 3 µg/mL (≈ 9.45 µM); responders at 50 mg/kg [4, 11]: 100%
CCn1cc(C(=O)O)c(=O)c2cnc(N3CCNCC3)nc21.Cl [Compound 11, 5,8-Dihydro-8-ethyl-2-(1-piperazinyl)-5-oxopyrido[2,3-d]pyrimidine-6-carboxylic acid hydrochloride]	3	10	30	< 35.4	–	8/8	< 17.7	100	< 100	–	responders at 25 mg/kg [4, 12]: 100%; responders at 100 mg/kg ([4]; NO.12, 168 h, po, 100 mg/kg, 7 days, read-out: number of the survival/the total number (converted)): 87.5%
CCn1cc(C(=O)O)c(=O)c2cnc(N3CCN(CC(C)O)CC3)nc21 (stereo not drawn) [Compound 4, 5,8-Dihydro-8-ethyl-2-[4-(2-hydroxy-n-propyl)-1-piperazinyl]-5-oxopyrido[2,3-d]pyrimidine-6-carboxylic acid]	3 (≈ 8.3 µM)	100 (≈ 277 µM)	30 (≈ 83 µM)	< 35.4	–	8/8	–	–	–	< 35.4	number of the survived/the total number ([3]; ip, 50 mg/kg): 8/8
C=CCn1cc(C(=O)O)c(=O)c2cnc(N3CCNCC3)nc21 [Compound 50]	10 (≈ 31.7 µM)	30 (≈ 95.1 µM)	100 (≈ 317 µM)	–	–	–	35	–	–	–	responders at 25 mg/kg [4, 12]: 12.5%; responders at 50 mg/kg [4, 11]: 87.5%; responders at 100 mg/kg [4, 8]: 100%
CCn1cc(C(=O)O)c(=O)c2cnc(N3CCN(Cc4ccc(OC)cc4)CC3)nc21 [Compound 17]	3 (≈ 7.08 µM)	100 (≈ 236 µM)	10 (≈ 23.6 µM)	–	–	–	–	–	–	–	–
CCn1cc(C(=O)O)c(=O)c2cnc(N3CCN(c4ccccc4)CC3)nc21 [Compound 6, 5,8-Dihydro-8-ethyl-2-(4-phenyl-1-piperazinyl)-5-oxoprido[2,3-d]pyrimidine-6-carboxylic acid]	–	–	–	–	–	–	–	–	–	–	MIC [5]: 6.3 µg/mL (≈ 16.6 µM); MIC [6]: 6.3 µg/mL (≈ 16.6 µM)
CCn1cc(C(=O)O)c(=O)c2cnc(N3CCNCC3)nc21 [Compound 1, 5,8-Dihydro-8-ethyl-2-(1-piperazinyl)-5-oxopyrido[2,3-d]pyrimidine-6-carboxylic acid]	–	10 (≈ 33 µM)	30 (≈ 98.9 µM)	12.5	8/8	8/8	10.5	–	100	6.3	MIC (Escherichia coli K-12; [10]): 1 µg/mL (≈ 3.3 µM); responders at 3.1 mg/kg ([4]; NO.12, ip, 168 h, read-out: number of the survival/the total number, ip, 3.1 mg/kg, 7 days): 12.5%; responders at 6.3 mg/kg ([4]; NO.12, ip, 168 h, read-out: number of the survival/the total number, ip, 6.3 mg/kg, 7 days): 25%; responders at 12.5 mg/kg ([4]; NO.12, ip, 168 h, read-out: number of the survival/the total number, ip, 12.5 mg/kg, 7 days): 50%; responders at 50 mg/kg ([4]; NO.12, ip, 168 h, read-out: number of the survival/the total number, ip, 50 mg/kg, 7 days): 100%; responders at 50 mg/kg ([4]; NO.12, po, 168 h, read-out: number of the survival/the total number, po, 50 mg/kg, 7 days): 0%; responders at 100 mg/kg ([4]; NO.12, po, 168 h, read-out: number of the survival/the total number, po, 100 mg/kg, 7 days): 50%; number of the survived/the total number ([3]; ip, 6.3 mg/kg): 4/8; number of the survived/the total number ([3]; ip, 12.5 mg/kg): 8/8; number of the survived/the total number ([3]; ip, 25 mg/kg): 8/8; number of the survived/the total number ([3]; po, 6.3 mg/kg): 0/8; number of the survived/the total number ([3]; po, 12.5 mg/kg): 4/8
O=C(O)c1cn(Cc2ccccc2)c2nc(N3CCNCC3)ncc2c1=O [Compound 33, 8-Benzyl-5,8-dihydro-2-(1-piperazinyl)-5-oxopyrido [2,3-d]pyrimidine-6-carboxylic acid]	3 (≈ 8.21 µM)	10 (≈ 27.4 µM)	100 (≈ 274 µM)	–	–	–	< 17.7	–	–	12.5	responders at 25 mg/kg [4, 12]: 100%; number of the survived/the total number ([3]; ip, 6.3 mg/kg): 1/8; number of the survived/the total number ([3]; ip, 12.5 mg/kg): 4/8; number of the survived/the total number ([3]; ip, 25 mg/kg): 7/8
CCN1CCN(c2ncc3c(=O)c(C(=O)O)cn(CC)c3n2)CC1 [Compound 21, 2-(4-ethyl-1-piperazinyl)-5,8-dihydro-8-ethyl-5-oxopyrido[2,3-d]pyrimidine-6-carboxylic acid]	1 (≈ 3.02 µM)	100 (≈ 302 µM)	30 (≈ 90.5 µM)	< 17.7	8/8	–	~100	50	~200	< 17.7	responders at 50 mg/kg [4, 11]: 0%; responders at 100 mg/kg [4, 8]: 50%; number of the survived/the total number ([3]; ip, 25 mg/kg): 8/8
Cl.O=C(O)c1cn(CCCl)c2nc(N3CCNCC3)ncc2c1=O [Compound 63, 8-(2-chloroethyl)-5,8-dihydro-2-(1-piperazinyl)-5-oxopyrido[2,3-d]pyrimidine-6-carboxylic acid hydrochloride]	3	30	30	–	–	–	< 17.7	–	–	–	responders at 25 mg/kg [4, 12]: 100%; responders at 50 mg/kg [4, 11]: 100%
CCn1cc(C(=O)O)c(=O)c2cnc(N3CCCC3)nc21 [Compound PA, reference compound]	1 (≈ 3.47 µM)	100 (≈ 347 µM)	10 (≈ 34.7 µM)	46.7	3/10	4/10	> 100	0	> 200	43.5	responders at 100 mg/kg [4, 8]: 0%; number of the survived/the total number ([3]; ip, 12.5 mg/kg): 0/10; number of the survived/the total number ([3]; ip, 25 mg/kg): 3/10; number of the survived/the total number ([3]; ip, 50 mg/kg): 5/10; number of the survived/the total number ([3]; ip, 100 mg/kg): 9/10; number of the survived/the total number ([3]; po, 12.5 mg/kg): 0/10; number of the survived/the total number ([3]; po, 100 mg/kg): 10/10; MIC [5]: 100 µg/mL (≈ 347 µM); MIC [6]: 100 µg/mL (≈ 347 µM)
C#CCN1CCN(c2ncc3c(=O)c(C(=O)O)cn(CC)c3n2)CC1 [Compound 38]	3 (≈ 8.79 µM)	> 100	10 (≈ 29.3 µM)	21	6/8	8/8	–	–	–	–	number of the survived/the total number ([3]; po, 12.5 mg/kg): 0/8

Source: patent US3962443A, “Antibacterial pharmaceutical compositions and processes for preparation thereof” (Dainippon Pharmaceutical Co., Ltd., priority 1972, dated 1976)
